# pIC50: −log10 of the molar value.
# Target: T1, human PRMT1 (Homo sapiens, UniProt Q99873)
# T1 construct: GST-tagged PRMT1; made in house; host or cells: High Five insect cells (baculovirus)
# Test: PRMT1 Biochemical Assay
# Conditions: biochemical evaluation, peptide substrate
# Description: S-adenosylmethionine (SAM), S-adenosylhomocysteine (SAH), bicine, Tween20, dimethylsulfoxide (DMSO), bovine skin gelatin (BSG), and Tris(2-carboxyethyl)phosphine hydrochloride solution (TCEP) were purchased from Sigma-Aldrich at the highest level of purity possible. ^3H-SAM was purchase from American Radiolabeled Chemicals with a specific activity of 80 Ci/mmol. 384-well streptavidin Flashplates were purchased from PerkinElmer.
# Peptide representative of human histone H4 residues 36-50 was synthesized with an N-terminal linker-affinity tag motif and a C-terminal amide cap by 21st Century Biochemicals. The peptide was purified by high-performance liquid chromatography (HPLC) to greater than 95% purity and confirmed by liquid chromatography mass spectrometry (LC-MS). The sequence was Biot-Ahx-[…]-amide (SEQ ID NO.: 1). […]
# The assays were all performed in a buffer consisting of 20 mM Bicine (pH=7.6), 1 mM TCEP, 0.005% BSG, and 0.002% Tween 20, prepared on the day of use. […] The plates were then read in a PerkinElmer TopCount plate reader to measure the quantity of ^3H-labeled peptide bound to the Flashplate surface, measured as disintegrations per minute (dpm) or alternatively, referred to as counts per minute (cpm). […]
# T1 sequence (Q99873 with tags, fused parts or gaps): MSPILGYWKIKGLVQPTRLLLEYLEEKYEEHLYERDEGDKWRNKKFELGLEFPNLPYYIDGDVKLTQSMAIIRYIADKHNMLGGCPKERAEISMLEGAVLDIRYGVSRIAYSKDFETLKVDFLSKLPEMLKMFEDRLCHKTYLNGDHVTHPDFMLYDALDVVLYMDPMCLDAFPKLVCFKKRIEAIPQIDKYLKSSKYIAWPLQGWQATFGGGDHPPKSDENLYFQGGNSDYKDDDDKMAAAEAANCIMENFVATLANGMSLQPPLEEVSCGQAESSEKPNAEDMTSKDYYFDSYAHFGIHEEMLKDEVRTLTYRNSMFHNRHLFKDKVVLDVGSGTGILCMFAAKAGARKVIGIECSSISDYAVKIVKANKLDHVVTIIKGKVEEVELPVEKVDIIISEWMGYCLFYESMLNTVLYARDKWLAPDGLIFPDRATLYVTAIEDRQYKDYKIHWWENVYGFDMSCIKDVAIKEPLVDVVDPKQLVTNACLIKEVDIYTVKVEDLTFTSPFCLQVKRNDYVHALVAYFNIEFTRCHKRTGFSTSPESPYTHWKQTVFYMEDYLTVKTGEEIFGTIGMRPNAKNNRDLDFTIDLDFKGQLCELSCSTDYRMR
smiles,measurement,value
CN(CCN)Cc1n[nH]c2cccc(OCc3ccccc3)c12 [Compound 1],pIC50,≥ 7.00
